# Test results published in PMC5378303 (Nature, 2017).
# Target: T1, phi3T AimR receptor (Bacillus phage phi3T, UniProt P0DOE3)
# T1 sequence (P0DOE3 1-378): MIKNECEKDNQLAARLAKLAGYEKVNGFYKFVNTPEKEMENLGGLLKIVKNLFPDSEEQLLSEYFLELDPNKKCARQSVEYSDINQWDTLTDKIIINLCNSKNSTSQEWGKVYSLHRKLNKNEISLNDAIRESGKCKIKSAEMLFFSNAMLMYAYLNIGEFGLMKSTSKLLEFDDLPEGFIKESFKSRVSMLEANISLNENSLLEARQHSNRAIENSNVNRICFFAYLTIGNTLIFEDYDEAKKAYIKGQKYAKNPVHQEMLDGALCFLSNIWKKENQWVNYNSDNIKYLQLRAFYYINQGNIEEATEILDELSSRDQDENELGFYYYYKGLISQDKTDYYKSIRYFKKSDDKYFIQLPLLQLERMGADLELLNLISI
# Test: Microscale thermophoresis
# Type: binding
# Conditions: label-free MST, 200 nM AimR, peptide 9-4000 nM, pH 8.0, 23 °C, 3 runs
substance,measurement,value
GMPRGA,binding to phi3T AimR (in words),did not show specific binding to the phi3T AimR receptor
